Assay [1] deals with T1, Src (Homo sapiens, UniProt P12931).
T1 construct: purchased Carna Biosciences 08-173
The assay is described as follows: HTRF KinEASE-TK enzymatic assay, Src. The format is biochemical. Particulars: for Inhibition (1 μM, %) Src: compound at 1 μM, ATP at Km (16 µM), average of two independent experiments.

Assay [2] addresses T2, Fyn (Homo sapiens, UniProt P06241).
T2 construct: purchased Carna Biosciences 08-168
The assay is described as follows: HTRF KinEASE-TK enzymatic assay, Fyn. Particulars: for Inhibition (1 μM, %) Fyn: compound at 1 μM; for Inhibition (1 μM, %) Fyn / IC50: ATP at Km (51.76 µM), average of two independent experiments. In kind it is biochemical.

The subject of assay [3] is U87-EGFRvIII GBM cell line. The assay is described as follows: Cell proliferation inhibition assay (MTT), U87-EGFRvIII. The format is cell-based. Particulars: 72 h, mean of at least three independent experiments, read-out: Antiproliferative activity IC50, U87-EGFRvIII.
Assay [4] concerns U251 GBM cell line. The assay is described as follows: Cell proliferation inhibition assay (MTT), U251. In kind it is cell-based. Particulars: mean of at least three independent experiments, read-out: Antiproliferative activity IC50, U251. How it is done: (§1) GBM cell lines U87, U251, and T98G (purchased from the American Type Culture Collection Company, Manassas, VA) were cultured in Roswell Park Memorial Institute (RPMI) 1640 medium containing 10% foetal bovine serum (FBS) at 37 °C in 5% CO2 incubator. The U87-EGFRvIII cell line established with EGFRvIII, kindly provided by Professor Xingmei Zhang, and grown in DMEN supplement with 10% FBS and […] G418 (Sigma-Aldrich, St. Louis, MO) at 37 °C in 5% CO2 incubator. The anti-proliferative activities of the compounds to be tested against four glioblastoma cell lines were determined by standard MTT method. In order to determine the anti-proliferation effect of the tested compounds, four cell lines were inoculated at a density of 2 × 10^3 cells/ml and treated with compounds at a concentration of 1–100 µM. The cells were co-incubated with different concentrations of the tested drugs for 72 h, and 10% MTT solution diluted in 100 µL medium was added. After 4 h of incubation, the absorbance value of each hole was measured at […] with an enzyme-linked immunosorbent assay plate reader. All compounds were tested three times in each cell line.

Assay [5] has as its system T98G GBM cell line. Kind of assay: Cell proliferation inhibition assay (MTT), T98G. In kind it is cell-based. Particulars: 72 h, mean of at least three independent experiments, read-out: Antiproliferative activity IC50, T98G. As for the experimental part: as §1
In assay [6] the test system is U87 GBM cell line. The assay is described as follows: Cell proliferation inhibition assay (MTT), U87. In kind it is cell-based. Particulars: 72 h, mean of at least three independent experiments, read-out: Antiproliferative activity IC50, U87. How it is done: as §1

Where two headings read alike, the source gives them in different places.

T2 sequence (P06241 whole entry): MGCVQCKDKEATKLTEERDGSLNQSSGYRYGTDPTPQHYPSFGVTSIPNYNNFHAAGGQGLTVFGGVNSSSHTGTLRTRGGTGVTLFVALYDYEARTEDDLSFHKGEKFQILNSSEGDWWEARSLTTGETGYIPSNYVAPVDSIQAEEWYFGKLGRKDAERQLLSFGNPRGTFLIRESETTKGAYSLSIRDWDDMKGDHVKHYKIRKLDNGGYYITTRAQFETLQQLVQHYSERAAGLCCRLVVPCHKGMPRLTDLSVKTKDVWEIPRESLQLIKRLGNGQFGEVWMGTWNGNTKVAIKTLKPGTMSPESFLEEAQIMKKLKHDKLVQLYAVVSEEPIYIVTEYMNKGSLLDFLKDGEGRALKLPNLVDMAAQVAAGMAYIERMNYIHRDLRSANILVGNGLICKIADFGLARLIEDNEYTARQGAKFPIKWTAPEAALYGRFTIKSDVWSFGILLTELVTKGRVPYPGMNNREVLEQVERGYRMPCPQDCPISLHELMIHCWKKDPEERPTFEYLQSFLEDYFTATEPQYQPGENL

“4-amino-3-(4-chlorophenyl)-1-(m-tolyl)-1H-imidazo[4,5-c]pyridin-2(3H)-one [Compound 1b]”: the “Inhibition (1 μM, %) Src” value in assay [1] came to 54%. Besides, the “Inhibition (1 μM, %) Fyn” value in assay [2] was 11%.
The term inhibition denotes the relative decrease from the control value, in per cent. Consider `Nc1nccc2c1n(-c1ccc(Cl)cc1)c(=O)n2CCN1CCOCC1` [Compound 1j, 4-amino-3-(4-chlorophenyl)-1-(2-morpholinoethyl)-1H-imidazo[4,5-c]pyridin-2(3H)-one], for which the figures for the inhibition at 1 µM in assay [1] and in assay [2] were 5% and 12%, respectively.
A word on the IC50: it is the point on the concentration scale where inhibition reaches its midpoint. `Nc1nccc2c1n(-c1ccc(Oc3ccccc3)cc1)c(=O)n2C1CCCC1` [Compound 1s, 4-amino-1-cyclopentyl-3-(4-phenoxyphenyl)-1,3-dihydro-2H-imidazo[4,5-c]pyridin-2-one]: the IC50 in assay [3] worked out at 50.5 µM; in assay [1] it was 0.15 µM; in assay [4] (72 h), 24.6 ± 2.28 µM; in assay [4] (Homo sapiens, U-251, 72 h), 24.6 µM; in assay [5], 16.4 ± 2.12 µM; in assay [5] (Homo sapiens, T98G), 16.4 µM. Moreover, the values for the IC50 in assay [2] and in assay [6] were 0.21 µM and 30.3 ± 0.84 µM, respectively. For the same compound, the inhibition at 1 µM in assay [1] worked out at 93%; in assay [2], 90%.
As to `Cc1ccc(-n2c(=O)n(C3CCCC3)c3ccnc(N)c32)cc1` [Compound 1k, 4-amino-1-cyclopentyl-3-(p-tolyl)-1,3-dihydro-2H-imidazo[4,5-c]pyridin-2-one], the inhibition at 1 µM in assay [1] amounted to 88%; in assay [2] it was 65%.
For the compound `COc1ccc(-n2c(=O)n(C3CCCC3)c3ccnc(N)c32)cc1` [Compound 1l, 4-amino-1-cyclopentyl-3-(4-methoxyphenyl)-1,3-dihydro-2H-imidazo[4,5-c]pyridin-2-one], the inhibition at 1 µM in assay [1] turned out to be 91%; in assay [2], 28%.
For `CC(C)(C)n1c(=O)n(-c2ccc(Cl)cc2)c2c(N)nccc21` [Compound 1f, 4-amino-1-(tert-butyl)-3-(4-chlorophenyl)-1H-imidazo[4,5-c]pyridin-2(3H)-one], in that order: 84% and 62%.
For `Nc1nccc2c1n(-c1cccc(F)c1)c(=O)n2C1CCCC1` [Compound 1p, 4-amino-1-cyclopentyl-3-(3-fluorophenyl)-1,3-dihydro-2H-imidazo[4,5-c]pyridin-2-one] the same measures were 66% and 19%.
Consider `CC(C)(C)n1nc(-c2ccc(Cl)cc2)c2c(N)ncnc21` [PP2, reference compound], for which the inhibition at 1 µM in assay [1] was found to be 93%. Further, the half-maximal inhibitory concentration (IC50) in assay [4] (Homo sapiens, U-251, 72 h) turned out to be 21.1 ± 2.16 µM; in assay [5] (Homo sapiens, T98G), 12.5 ± 2.37 µM; in assay [6] it was 39.9 ± 6.91 µM.
In the case of `Nc1nccc2c1n(-c1ccc3[nH]ccc3c1)c(=O)n2C1CCCC1` [Compound 1r, 4-amino-1-cyclopentyl-3-(1H-indol-5-yl)-1,3-dihydro-2H-imidazo[4,5-c]pyridin-2-one], the inhibition at 1 µM in assay [1] turned out to be 84%; in assay [2], 30%.
In the case of `Nc1nccc2c1n(-c1ccc(Cl)cc1)c(=O)n2-c1ccccc1` [Compound 1a, 4-amino-3-(4-chlorophenyl)-1-phenyl-1H-imidazo[4,5-c]pyridin-2(3H)-one], the inhibition at 1 µM in assay [1] came to 78%; in assay [2], 35%.
With `Nc1nccc2c1n(-c1ccc3c(c1)OCO3)c(=O)n2C1CCCC1` [Compound 1q, 4-amino-3-(benzo[d][1,3]dioxol-5-yl)-1-cyclopentyl-1H-imidazo[4,5-c]pyridin-2(3H)-one], the IC50 in assay [3] stood at 69 ± 8.39 µM; in assay [1] it was 0.22 µM; in assay [4] (Homo sapiens, U-251, 72 h), 30 ± 0.93 µM; in assay [5] (Homo sapiens, T98G), 20.7 ± 0.67 µM; in assay [2] it was 0.73 µM; in assay [6], 47 ± 3.78 µM. The inhibition at 1 µM in assay [1] is 85%; in assay [2], 74%.
As to `CN(C)CCn1c(=O)n(-c2ccc(Cl)cc2)c2c(N)nccc21` [Compound 1h, 4-amino-3-(4-chlorophenyl)-1-(2-(dimethylamino)ethyl)-1H-imidazo[4,5-c]pyridin-2(3H)-one], the results for the inhibition at 1 µM in assay [1] and in assay [2] were 18% and 19%, respectively.
On to `Nc1nccc2c1n(-c1ccc(Cl)cc1)c(=O)n2C1CCCC1` [Compound 1d, 4-amino-3-(4-chlorophenyl)-1-cyclopentyl-1,3-dihydro-2H-imidazo[4,5-c]pyridin-2-one], for which the IC50 in assay [3] was 67.2 ± 3.2 µM; in assay [1], 0.19 µM; in assay [4] (Homo sapiens, U-251, 72 h) it was 33.3 ± 3.36 µM; in assay [5] (Homo sapiens, T98G), 20.6 ± 0.3 µM; in assay [2], 0.24 µM; in assay [6] it was 63.3 ± 10.5 µM. Moreover, the inhibition at 1 µM was found to be 96% in assay [1] and 90% in assay [2].
On to `Nc1nccc2c1n(-c1ccc(C(F)(F)F)cc1)c(=O)n2C1CCCC1` [Compound 1m, 4-amino-1-cyclopentyl-3-(4-(trifluoromethyl)phenyl)-1,3-dihydro-2H-imidazo[4,5-c]pyridin-2-one], for which the inhibition at 1 µM in assay [1] was 11%; in assay [2], -2%.
For `COCCn1c(=O)n(-c2ccc(Cl)cc2)c2c(N)nccc21` [Compound 1i, 4-amino-3-(4-chlorophenyl)-1-(2-methoxyethyl)-1H-imidazo[4,5-c]pyridin-2(3H)-one], in that order: 65% and 24%.
For `N#Cc1ccc(-n2c(=O)n(C3CCCC3)c3ccnc(N)c32)cc1` [Compound 1n, 4-(4-amino-1-cyclopentyl-2-oxo-1,2-dihydro-3H-imidazo[4,5-c]pyridin-3-yl)benzonitrile], in that order: 45% and 44%.
Turning to `Nc1nccc2c1n(-c1ccc(CO)cc1)c(=O)n2C1CCCC1` [Compound 1o, 4-amino-1-cyclopentyl-3-(4-(hydroxymethyl)phenyl)-1,3-dihydro-2H-imidazo[4,5-c]pyridin-2-one], the inhibition at 1 µM in assay [1] turned out to be 19%; in assay [2] it was 20%.
Consider “4-amino-1-(3-bromophenyl)-3-(4-chlorophenyl)-1H-imidazo[4,5-c]pyridin-2(3H)-one [Compound 1c]”, for which the “Inhibition (1 μM, %) Src” value in assay [1] is reported as 68%. The “Inhibition (1 μM, %) Fyn” value in assay [2] was 31%.
As for `Nc1nccc2c1n(-c1ccc(Cl)cc1)c(=O)n2C1CCCCC1` [Compound 1e, 4-amino-3-(4-chlorophenyl)-1-cyclohexyl-1H-imidazo[4,5-c]pyridin-2(3H)-one], the IC50 in assay [3] is greater than 100 µM; in assay [1], 0.073 µM; in assay [4] (Homo sapiens, U-251, 72 h) it was 36.1 ± 2.53 µM; in assay [5] (Homo sapiens, T98G), 20.1 ± 0.67 µM; in assay [2], 0.58 µM; in assay [6] it was 53.6 ± 2.51 µM. Also, the values for the inhibition at 1 µM in assay [1] and in assay [2] were 88% and 76%, respectively.
For `CC(C)Cn1c(=O)n(-c2ccc(Cl)cc2)c2c(N)nccc21` [Compound 1g, 4-amino-3-(4-chlorophenyl)-1-isobutyl-1H-imidazo[4,5-c]pyridin-2(3H)-one], the inhibition at 1 µM in assay [1] was 16%; in assay [2] it was 19%.

The record behind these values is article PMC8274516, “Identification of imidazo[4,5-c]pyridin-2-one derivatives as novel Src family kinase inhibitors against glioblastoma” (Journal of Enzyme Inhibition and Medicinal Chemistry, 2021).
